Assay results: patent US8334382B2, “Substituted biaryl piperazinyl-pyridine analogues” (Neurogen Corporation, priority 2004, dated 2012)

biological target: T1, human capsaicin receptor (Homo sapiens, UniProt Q8NER1); assay: Calcium mobilization assay, determination of antagonist activity; type: cell-based; settings: capsaicin at EC50; cells expressing human capsaicin receptor; Example 6
T1 construct: expressed in transfected cells; host or cells: HEK293, stably transfected with pBK-CMV construct
In short: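 HEK293 cells stably expressing full-length human TRPV1, loaded with Fluo-3 AM in KRH buffer pH 7.4, preincubated with compound (final 1-5 µM) in the dark at room temperature for 0.5-6 h, then stimulated with capsaicin at its EC50. FLIPR fluorescence gave IC50 as concentration halving the capsaicin response.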

T1 sequence (Q8NER1 whole entry): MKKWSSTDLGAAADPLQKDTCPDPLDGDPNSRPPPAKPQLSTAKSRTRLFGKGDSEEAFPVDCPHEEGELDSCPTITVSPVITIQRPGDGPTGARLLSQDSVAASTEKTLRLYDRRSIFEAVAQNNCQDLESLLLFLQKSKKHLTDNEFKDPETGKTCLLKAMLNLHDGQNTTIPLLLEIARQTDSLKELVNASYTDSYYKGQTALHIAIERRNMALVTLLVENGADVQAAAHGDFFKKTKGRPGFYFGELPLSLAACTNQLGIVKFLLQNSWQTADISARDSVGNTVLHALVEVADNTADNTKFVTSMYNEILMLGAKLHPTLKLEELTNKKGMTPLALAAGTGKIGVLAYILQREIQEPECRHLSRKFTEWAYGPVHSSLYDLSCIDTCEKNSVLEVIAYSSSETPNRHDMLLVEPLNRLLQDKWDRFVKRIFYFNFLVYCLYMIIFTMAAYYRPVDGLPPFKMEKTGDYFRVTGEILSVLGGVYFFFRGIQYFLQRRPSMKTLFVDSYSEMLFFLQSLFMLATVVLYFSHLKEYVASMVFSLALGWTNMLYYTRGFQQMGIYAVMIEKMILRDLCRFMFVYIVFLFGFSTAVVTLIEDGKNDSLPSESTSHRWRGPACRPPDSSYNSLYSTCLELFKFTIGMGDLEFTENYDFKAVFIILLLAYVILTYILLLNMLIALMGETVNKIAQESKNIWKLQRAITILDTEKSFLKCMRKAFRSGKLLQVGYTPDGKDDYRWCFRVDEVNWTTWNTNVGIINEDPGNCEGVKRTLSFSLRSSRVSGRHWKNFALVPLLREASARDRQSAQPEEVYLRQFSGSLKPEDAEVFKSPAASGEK

Row | Compound | IC50 [nM]
1 | Cc1cc(C(=O)N2CCCC2)cnc1N1CCN(c2cc(-c3ccc(F)cc3)nc(N3CCCC3C)n2)CC1 (stereo not shown) [Example 122, 4-(4-fluorophenyl)-2-(2-methylpyrrolidin-1-yl)-6-{4-[3-methyl-5-(pyrrolidin-1-ylcarbonyl)pyridin-2-yl]piperazin-1-yl}pyrimidine] | ≤ 1000
2 | CC1CCCN1c1nc(-c2cncc(Cl)c2)cc(N2CCN(c3ncc(CO)cc3Cl)C[C@H]2C)n1 (stereo partly drawn) [Example 49, (5-Chloro-6-{4-[6-(5-chloro-pyridin-3-yl)-2-(2-methyl-pyrrolidin-1-yl)-pyrimidin-4-yl]-3-(R)-methyl-piperazin-1-yl}-pyridin-3-yl)-methanol] | ≤ 1000
3 | CCOCCCNC(=O)c1cnc(N2CCN(c3cc(-c4ccc(F)cc4)nc(N4CCCC4C)n3)CC2)c(C)c1 (stereo not shown) [Example 112, N-(3-ethoxypropyl)-6-{4-[6-(4-fluorophenyl)-2-(2-methylpyrrolidin-1-yl)pyrimidin-4-yl]piperazin-1-yl}-5-methylnicotinamide] | ≤ 1000
4 | CC1CCCN1c1nc(-c2ccc(F)cc2)cc(N2CCN(c3ncc(C(C)(C)O)cc3Cl)CC2)n1 (stereo not shown) [Example 147, 2-(5-Chloro-6-{4-[6-(4-fluoro-phenyl)-2-(2-methyl-pyrrolidin-1-yl)-pyrimidin-4-yl]-piperazin-1-yl}-pyridin-3-yl)-propan-2-ol] | ≤ 1000
5 | Cc1cc(CO)cnc1N1CCN(c2cc(-c3ccccc3)nc(N3CCCC3C)n2)CC1 (stereo not shown) [Example 71, (5-Methyl-6-{4-[2-(2-methyl-pyrrolidin-1-yl)-6-phenyl-pyrimidin-4-yl]-piperazin-1-yl}-pyridin-3-yl)-methanol] | ≤ 1000
6 | C[C@@H]1CN(c2ncc(OCCO)cc2Cl)CCN1c1cc(-c2ccc(F)c(Cl)c2)nc(N2CCC[C@H]2C)n1 [Example 183, 2-{[5-chloro-6-((3R)-4-{6-(3-chloro-4-fluorophenyl)-2-[(2R)-2-methylpyrrolidin-1-yl]pyrimidin-4-yl}-3-methylpiperazin-1-yl)pyridin-3-yl]oxy}ethanol] | ≤ 1000
7 | Cc1cc(C(=O)N(C)C2CCN(C)C2)cnc1N1CCN(c2cc(-c3ccc(F)cc3)nc(N3CCCC3C)n2)CC1 (stereo not shown) [Example 138, 6-{4-[6-(4-fluorophenyl)-2-(2-methylpyrrolidin-1-yl)pyrimidin-4-yl]piperazin-1-yl}-N,5-dimethyl-N-(1-methylpyrrolidin-3-yl)nicotinamide] | ≤ 1000
8 | Cc1cc(CO)cnc1N1CCN(c2cc(-c3ccncc3)nc(N3CCCC3C)n2)CC1 (stereo not shown) [Example 73, (5-Methyl-6-{4-[2-(2-methyl-pyrrolidin-1-yl)-6-pyridin-4-yl-pyrimidin-4-yl]-piperazin-1-yl}-pyridin-3-yl)-methanol] | ≤ 1000
9 | Cc1cc(C(=O)N(C)CCN(C)C)cnc1N1CCN(c2cc(-c3ccc(F)cc3)nc(N3CCCC3C)n2)CC1 (stereo not shown) [Example 136, N-[2-(dimethylamino)ethyl]-6-{4-[6-(4-fluorophenyl)-2-(2-methylpyrrolidin-1-yl)pyrimidin-4-yl]piperazin-1-yl}-N,5-dimethylnicotinamide] | ≤ 1000
10 | CC1CCCN1c1nc(-c2ccc(F)c(Cl)c2)cc(N2CCN(c3nccc(C(=O)O)c3Cl)CC2)n1 (stereo not shown) [Example 7, 3-Chloro-2-{4-[6-(3-chloro-4-fluoro-phenyl)-2-(2-methyl-pyrrolidin-1-yl)-pyrimidin-4-yl]-piperazin-1-yl}-isonicotinic acid] | ≤ 1000

Other lines, results leading:

Row | IC50 [nM] | Compound
11 | ≤ 1000 | COCC(C)NC(=O)c1cnc(N2CCN(c3cc(-c4ccc(F)cc4)nc(N4CCCC4C)n3)CC2)c(C)c1 (stereo not shown) [Example 117, 6-{4-[6-(4-fluorophenyl)-2-(2-methylpyrrolidin-1-yl)pyrimidin-4-yl]piperazin-1-yl}-N-(2-methoxy-1-methylethyl)-5-methylnicotinamide]
12 | ≤ 1000 | C[C@@H]1CN(c2ncc(CO)cc2Cl)CCN1c1cc(-c2ccc(F)cc2)nc(N2CCC[C@H]2C)n1 [Example 98, (5-Chloro-6-{4-[6-(4-fluoro-phenyl)-2-(2-(R)-methyl-pyrrolidin-1-yl)-pyrimidin-4-yl]-3-(R)-methyl-piperazin-1-yl}-pyridin-3-yl)-methanol]
13 | ≤ 1000 | Cc1cc(C(=O)O)cnc1N1CCN(c2cc(-c3ccc(F)cc3)nc(N3CCOC[C@H]3C)n2)[C@H](C)C1 [Example 150, 6-{4-[6-(4-Fluoro-phenyl)-2-(3-(R)-methyl-morpholin-4-yl)-pyrimidin-4-yl]-3-(R)-methyl-piperazin-1-yl}-5-methyl-nicotinic acid]
14 | ≤ 1000 | Cc1cc(C(=O)O)cnc1N1CCN(c2cc(-c3ccc(F)c(Cl)c3)nc(N3CCC[C@H]3C)c2)[C@H](C)C1 [Example 178, 6-{4-[2-(3-Chloro-4-fluoro-phenyl)-6-(2-(R)-methyl-pyrrolidin-1-yl)-pyridin-4-yl]-3-(R)-methyl-piperazin-1-yl}-5-methyl-nicotinic acid]
15 | ≤ 1000 | COCCCNC(=O)c1cnc(N2CCN(c3cc(-c4ccc(F)cc4)nc(N4CCCC4C)n3)CC2)c(C)c1 (stereo not shown) [Example 110, 6-{4-[6-(4-fluorophenyl)-2-(2-methylpyrrolidin-1-yl)pyrimidin-4-yl]piperazin-1-yl}-N-(3-methoxypropyl)-5-methylnicotinamide]
16 | ≤ 1000 | Cc1cc(C(N)=O)cnc1N1CCN(c2cc(-c3ccc(F)cc3)nc(N(C)C)n2)[C@H](C)C1 [Example 83, 6-{4-[2-Dimethylamino-6-(4-fluoro-phenyl)-pyrimidin-4-yl]-3-(R)-mcthyl-piperazin-1-yl}-5-methyl-nicotinamide]
17 | ≤ 1000 | Cc1cc(C(=O)N2CCCCC2C)cnc1N1CCN(c2cc(-c3ccc(F)cc3)nc(N3CCCC3C)n2)CC1 (stereo not shown) [Example 128, 4-(4-fluorophenyl)-6-(4-{3-methyl-5-[(2-methylpiperidin-1-yl)carbonyl]pyridin-2-yl}piperazin-1-yl)-2-(2-methylpyrrolidin-1-yl)pyrimidine]
18 | ≤ 1000 | Cc1cc(C(=O)O)cnc1N1CCN(c2cc(-c3ccc(F)cc3)nc(N3CCC[C@H]3C)n2)[C@@H](C)C1 [Example 170, 6-{4-[6-(4-Fluoro-phenyl)-2-(2-(R)-methyl-pyrrolidin-1-yl)-pyrimidin-4-yl]-3-(S)-methyl-piperazin-1-yl}-5-methyl-nicotinic acid]

biological target: VR; assay: not given; settings: binds to VR with no more than moderate affinity; cited from earlier work

Row | Compound | Ki [nM]
19 | Cl.Cl.Cl.Cl.Cl.Cl.N.N.N.N.N.N.N.N.N.N.N.N.N.N.[O-2].[O-2].[Ru+3].[Ru+3].[Ru+4] [ruthenium red] | ≥ 140000
